For orientation: Km means the concentration of substrate that gives half-maximal velocity. For orientation: kcat means the number of substrate molecules converted per active site and unit of time at saturation.

Where two headings read alike, the source gives them in different places. Marks after values point to notes of the source that are not given here.

In one data set the test system is BlaC-expressing E. coli. The class given is cell-based.
Data set [1] deals with TEM-1 Bla-expressing E. coli. The class given is cell-based.
Data set [2] concerns the target T1, BlaC (Mycobacterium tuberculosis, UniProt P9WKD3). Particulars: for Km: read-out: BlaC Km.
Data set [3] deals with T1, BlaC. Description: Fluorescence activation of probes by BlaC. The format is biochemical. How it is done:
(§1) The fluorescent spectra of the probes CDC-1, CDC-3, CDC-OMe and CDC-OEt were recorded before and after BlaC treatment to examine their responses to BlaC.
(§2) The response of CDC-OMe to varying concentrations of BlaC and TEM-1 Bla (at a range of 1 pM to 100 nM) was examined to investigate its specificity (FIG. 1C). 1 nM of BlaC (100 μL) induced a 130% increase in the fluorescence intensity within one hour (F/F0=2.3), while a 100-fold higher TEM-1 Bla concentration (100 nM) could only produce 30% fluorescence enhancement (F/F0=1.3).
(§3) Even at a more than 1000-fold higher concentration, the fluorescence signal of CDG-OMe generated by TEM-1 Bla (400 nM) was just 30% of that by BlaC (400 pM) in 300 mins, confirming its high selectivity for BlaC (FIG. 5C). Less than 1 fmol of BlaC was readily detectable with CDG-OMe after 8 hours incubation (FIG. 5D).

A further data set addresses TEM-1 Bla (Escherichia coli, UniProt P62593). Description: Fluorescence activation of probes by TEM-1 Bla. The format is biochemical, E. coli. Particulars: for change in fluorescence with TEM-1 Bla (in words): TEM-1 Bla 50 nM, 30 minutes. How it is done: as §1, §2, §3
Data set [4] concerns M. tuberculosis var. bovis strain BCG. The format is cell-based, Mycobacterium tuberculosis var. bovis strain BCG.
Data set [5] deals with COc1ccc(-c2c3ccc(=O)cc-3oc3cc(OCc4ccc(OCC5=C(C(=O)O)N6C(=O)[C@@H](NC(=O)Cc7ccccc7)[C@H]6SC5)cc4)ccc23)c(C)c1. Kind of data set: purified protein, by the assay type. Particulars: 22.0 °C.
The subject of data set [6] is COc1ccc(-c2c3ccc(=O)cc-3oc3cc(OCc4ccc(OCC5=C(C(=O)O)N6C(=O)[C@](NC(=O)Cc7ccccc7)(OC)[C@H]6SC5)cc4)ccc23)c(C)c1. Kind of data set: purified protein, by the assay type. Particulars: 22.0 °C.
The test system of data set [7] is O=C(Cc1ccccc1)N[C@@H]1C(=O)N2C(C(=O)O)=C(COc3ccc4ccc(=O)oc4c3)C[S@+]([O-])[C@H]12. Description: purified protein, by the assay type. Conditions: pH 7.4; 22.0 °C.
Where [8] appears, read: 1 nM of BlaC (100 μL), within one hour.

T1 sequence (P9WKD3 35-307 limits assumed): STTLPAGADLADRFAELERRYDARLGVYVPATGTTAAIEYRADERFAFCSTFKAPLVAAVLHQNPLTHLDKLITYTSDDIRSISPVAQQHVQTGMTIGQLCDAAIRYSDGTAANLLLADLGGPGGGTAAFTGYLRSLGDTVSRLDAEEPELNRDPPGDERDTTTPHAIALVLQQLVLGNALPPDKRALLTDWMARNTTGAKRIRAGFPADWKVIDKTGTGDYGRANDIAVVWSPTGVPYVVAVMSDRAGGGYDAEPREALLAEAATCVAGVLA
TEM-1 Bla, sequence (P62593 24-286 limits assumed): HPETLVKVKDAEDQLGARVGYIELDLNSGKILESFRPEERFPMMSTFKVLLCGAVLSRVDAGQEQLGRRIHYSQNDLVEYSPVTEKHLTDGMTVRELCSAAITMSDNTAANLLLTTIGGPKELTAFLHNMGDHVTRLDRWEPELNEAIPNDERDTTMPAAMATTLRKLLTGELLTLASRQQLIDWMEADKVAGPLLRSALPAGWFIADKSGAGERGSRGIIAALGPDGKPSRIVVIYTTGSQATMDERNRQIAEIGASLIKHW

Consider `COc1ccc(-c2c3ccc(=O)cc-3oc3cc(OCc4ccc(OCC5=C(C(=O)O)N6C(=O)[C@@H](NC(=O)Cc7ccccc7)[C@H]6SC5)cc4)ccc23)c(C)c1` [CDG-1, (6R,7R)-3-((4-(((9-(4-Methoxy-2-methylphenyl)-3-oxo-3H-xanthen-6-yl)oxy)methyl)phenoxy)methyl)-8-oxo-7-(2-phenylacetamido)-5-thia-1-azabicyclo[4.2.0]oct-2-ene-2-carboxylic acid], for which the “number of BlaC-carrying E. coli detected” value with BlaC-expressing E. coli was ~10,000. In addition, the “number of TEM-1 Bla-carrying E. coli detected” value in [1] is listed as “approximately 1,000”. For the same molecule, the BlaC kcat entry on BlaC [2] (pH 6.6) is “(1.0) s^−1”.
Regarding `CO[C@@]1(NC(=O)Cc2ccccc2)C(=O)N2C(C(=O)O)=C(COc3ccc4ccc(=O)oc4c3)CS[C@@H]21` [CDC-OMe, (6R,7S)-7-Methoxy-8-oxo-3-((2-oxo-2H-chromen-7-yloxy)methyl)-7-(2-phenylacetamido)-5-thia-1-azabicyclo[4.2.0]oct-2-ene-2-carboxylic acid], on BlaC [3] (setting [8]), the “F/F0 (turn-on ratio)” value came out at 2.3 and the “increase in the fluorescence intensity” value is reported as 130%. For the same molecule, the “enhancement of fluorescence intensity by BlaC” value at BlaC [3] (in less than 30 minutes, BlaC 50 nM) is given as “more than 30 fold”. In addition, the “change in fluorescence with TEM-1 Bla (in words)” value (“change in fluorescence” for short) on TEM-1 Bla is “no change in the fluorescence intensity”. Moreover, at TEM-1 Bla (TEM-1 Bla 100 nM, one hour), the “F/F0 (turn-on ratio)” value stood at 1.3 and the fluorescence enhancement was 30%. In addition, in the data set on BlaC-expressing E. coli, the “fluorescence in E. coli expressing no β-lactamase, TEM-1 Bla or BlaC (in words)” value is reported as “strong fluorescence was observed only with E. coli expressing BlaC”. For the same molecule, at BlaC [2], the BlaC kcat was determined as 1 s⁻¹, the “catalytic efficiency (kcat/Km) for BlaC over TEM-1 Bla” value was “over 1,000 fold” and the Michaelis constant (Km) worked out at 47 µM.
With `CO[C@@]1(NC(C)=O)C(=O)N2C(C(=O)O)=C(COc3ccc4ccc(=O)oc4c3)CS[C@@H]21` [CDC-5, (6R,7S)-7-Acetamido-7-methoxy-8-oxo-3-(((2-oxo-2H-chromen-7-yl)oxy)methyl)-5-thia-1-azabicyclo[4.2.0]oct-2-ene-2-carboxylic acid], at BlaC [2], the BlaC kcat worked out at 0.52 s⁻¹ and the Km worked out at 139 µM.
Regarding `O=C(Cc1ccccc1)N[C@@H]1C(=O)N2C(C(=O)O)=C(COc3ccc4ccc(=O)oc4c3)CS[C@H]12` [CDC-1, (6R,7R)-8-Oxo-3-((2-oxo-2H-chromen-7-yloxy)methyl)-7-(2-phenylacetamido)-5-thia-1-azabicyclo[4.2.0]oct-2-ene-2-carboxylic acid], on TEM-1 Bla, the “change in fluorescence” value is “rapid fluorescence”. The “signal with TEM-1 Bla compared with BlaC (in words)” value at TEM-1 Bla (serially diluted enzymes, 1 hour) is “stronger signal than with BlaC”. The “fluorescence in E. coli expressing no β-lactamase, TEM-1 Bla or BlaC (in words)” value with BlaC-expressing E. coli was “present in E. coli expressing either TEM-1 Bla or BlaC”. Moreover, at BlaC [2], the BlaC kcat was determined as 13 s⁻¹ and the Michaelis constant (Km) came out at 63 µM.
Take `CCO[C@@]1(NC(=O)Cc2ccccc2)C(=O)N2C(C(=O)O)=C(COc3ccc4ccc(=O)oc4c3)CS[C@@H]21` [CDC-OEt, (6R,7S)-7-Ethoxy-8-oxo-3-((2-oxo-2H-chromen-7-yloxy)methyl)-7-(2-phenylacetamido)-5-thia-1-azabicyclo[4.2.0]oct-2-ene-2-carboxylic acid]: the “fluorescence enhancement by BlaC (in words)” value on BlaC [3] (within 30 minutes, BlaC 50 nM) was “only slight fluorescence enhancement”. For the same molecule, on BlaC [2], the BlaC kcat was determined as 0.026 s⁻¹, the “further reduction in turnover number (BlaC) relative to CDC-OMe” value came out at 40 fold and the Km was found to be 131 µM.
For the molecule `CCN1CCN(C(=O)N[C@@H](C(=O)N[C@@H]2C(=O)N3C(C(=O)O)=C(COc4ccc5ccc(=O)oc5c4)CS[C@H]23)c2ccccc2)C(=O)C1=O` [CDC-3, (6R,7R)-7-((R)-2-(4-Ethyl-2,3-dioxopiperazine-1-carboxamido)-2-phenylacetamido)-8-oxo-3-((2-oxo-2H-chromen-7-yloxy)methyl)-5-thia-1-azabicyclo[4.2.0]oct-2-ene-2-carboxylic acid], the “change in fluorescence” value on TEM-1 Bla is reported as “rapid fluorescence”. On BlaC [2], the BlaC kcat was found to be 6 s⁻¹ and the Km was found to be 69 µM.
Take `COc1ccc(-c2c3ccc(=O)cc-3oc3cc(OCc4ccc(OCC5=C(C(=O)O)N6C(=O)[C@](NC(=O)Cc7ccccc7)(OC)[C@H]6SC5)cc4)ccc23)c(C)c1` [CDG-OMe, (6R,7S)-7-Methoxy-3-((4-(((9-(4-methoxy-2-methylphenyl)-3-oxo-3H-xanthen-6-yl)oxy)methyl)phenoxy)methyl)-8-oxo-7-(2-phenylacetamido)-5-thia-1-azabicyclo[4.2.0]oct-2-ene-2-carboxylic acid]: the “amount of BlaC readily detectable” value on BlaC [3] (after 8 hours incubation) is reported as “Less than 1 fmol”. Further, at BlaC [3] (excitation 490 nm), the “increase of fluorescence emission at 520 nm upon treatment with BlaC” value was “up to 218 fold”. In addition, the “fluorescence signal generated by TEM-1 Bla relative to that by BlaC” value at TEM-1 Bla (TEM-1 Bla 400 nM vs BlaC 400 pM, 300 mins) was 30%. In addition, in the data set on BlaC-expressing E. coli, the “signal from BlaC-expressing E. coli (in words)” value is recorded as “strong fluorescent signal”. Further, the “signal from TEM-1 Bla-expressing E. coli (in words)” value in data set [1] was “no detectable signal”. Besides, the results for the “number of BCG detected” value in [4] (20 min incubation) and in data set [4] (438 mins (7 hours) incubation) were 2×10^5 CFU and 10^3 CFU, respectively. Also, the “increase of kcat/Km for BlaC relative to CDC-OMe” value at BlaC [2] was determined as 11 fold. The BlaC kcat entry on BlaC [2] (pH 6.6) is recorded as “(0.8) s^−1”.
On to BlaC (Mycobacterium tuberculosis H37Rv), for which the Km result in data set [5] (pH 6.6) was “(2.1)^c μM”; in [5] (pH 7.4) it was 2.1 µM; in data set [6] (pH 6.6), “(4.7)^c μM”; in data set [6] (pH 7.4), 2.9 µM; in data set [7], 136 µM. Besides, the results for the catalytic constant (kcat) in data set [5] (pH 7.4), in data set [6] (pH 7.4) and in data set [7] were 3.7 s⁻¹, 0.7 s⁻¹ and 0.51 s⁻¹, respectively. In addition, the kcat/Km in data set [5] (pH 7.4) is 1.8 × 10^6 s^−1M^−1; in [6] (pH 7.4) it was 2.4 × 10^5 s^−1M^−1; in data set [7], 3.8 × 10^3 s^−1M^−1.
With `CC(=O)N[C@@H]1C(=O)N2C(C(=O)O)=C(COc3ccc4ccc(=O)oc4c3)CS[C@H]12` [CDC-4, (6R,7R)-7-Acetamido-8-oxo-3-(((2-oxo-2H-chromen-7-yl)oxy)methyl)-5-thia-1-azabicyclo[4.2.0]oct-2-ene-2-carboxylic acid], at BlaC [2], the BlaC kcat turned out to be 10 s⁻¹ and the Km amounted to 148 µM.

These data come from patent US9677112B2 (priority 2012, dated 2017).
